In article PMC4474554 (PLoS ONE, 2015):
Read-outs that look alike come from different tables or passages of the source.

Legend:
Syk = system: Syk; parameters: method as in earlier work; settings: updated data; cited from earlier work
NCI-H2228 = experiment: MTS assay, NCI-H2228

Experimental: Drug sensitivity was determined by a modified MTS assay with CellTiter 96 AQueous One Solution Reagent (Promega, Madison, WI). Cells were generally seeded on 96-well plates at a density that would yield 80% confluence by the completion of the experiment, varying by each cell line from 3000 to 4000 per well. […] After that, MTS dye was added to each well. The cultures were incubated for another 1 hour at 37°C in a humidified atmosphere with 5% CO2. Optical densities of samples were measured at 490 nm using Immuno Mini NJ-2300 (Nalge Nunc International KK, Rochester, NY). Mean optical density at each drug concentration was calculated after discarding the highest and lowest values. […] IC50 values were expressed as mean and standard deviations. The assays were repeated until the standard deviation became less than the mean.

## CNC(=O)c1ccccc1Nc1nc(Nc2ccc(N3CCOCC3)cc2OC)ncc1Cl [TAE226]
Syk
  IC50: […]
NCI-H2228; read-out: IC50 (μM) (mean ± SD), NCI-H2228, EML4-ALK fusion Variant 3, MTS, TAE226 48 hours, gefitinib 72 hours
  IC50: 0.28 ± 0.001 µM
NCI-H2228; read-out: each IC50, NCI-H2228, independent MTS assays
  IC50: 0.28 µM
NCI-H2228; read-out: mean IC50, NCI-H2228, mean of independent MTS assays
  IC50: 0.28 µM
